Where a SMILES comes first, the peptide text is derived from it.
Experiment: Binding affinity towards 23-nt RNA oligonucleotide from the 5'-untranslated region of the cholestery ester transfer protein (CETP)

Kd: 32 µM
SMILES: CC(C)C[C@H](NC(=O)[C@H](CCCCN)NC(=O)[C@H](Cc1ccc(O)cc1)NC(=O)[C@@H](N)CCCCN)C(=O)N[C@@H](Cc1ccc(O)cc1)C(=O)N[C@@H](CCCCN)C(=O)N[C@@H](CS)C(N)=O (H-KYKLYKC-NH2)

Reference: BindingDB's records for doi:10.1021/jm0010466 (2001)
